Earlier results in patent US20130224794A1, “MINERAL-PEPTIDE CHELATES” (NUGEN BIOSCIENCE (TAIWAN) CO., LTD., priority 2009, published 2013).
Where two headings read alike, the source gives them in different places.

Details: for absorption: qualitative
[1] = general soybean isoflavones, glucoside vs aglycone form

SMILES | bioavailability (in vivo) [%] | bioavailability [1] [%] | absorption [1]
O=c1c(-c2ccc(O)cc2)coc2cc(O)ccc12 [daidzein] | 90 | – | –
O=c1c(-c2ccc(O)cc2)coc2cc(O[C@@H]3O[C@H](CO)[C@@H](O)[C@H](O)[C@H]3O)cc(O)c12 [genistin] | – | 20 | slow
O=c1c(-c2ccc(O)cc2)coc2cc(O)cc(O)c12 [genistein] | – | 90 | fast
O=c1c(-c2ccc(O)cc2)coc2cc(O[C@@H]3O[C@H](CO)[C@@H](O)[C@H](O)[C@H]3O)ccc12 [daidzin] | – | 20 | slow
